From US11192849B2, “Compounds, compositions, and methods for modulating ferroptosis and treating excitotoxic disorders” (THE TRUSTEES OF COLUMBIA UNIVERSITY IN THE CITY OF NEW YORK, priority 2013, dated 2021) come the findings set out here.

pEC50: −log10 of the molar value. Where only a bound is given, the exact number is not on record here.

One test relates to HT-1080 cells. Description: Inhibition of erastin (10 μM)-induced death in HT-1080 cells (Alamar Blue). The settings on record: HT-1080, erastin (10 μM). Type of test: cell-based, human. Here is the method:
Cell viability was typically assessed in 384-well format by Alamar Blue (Invitrogen) fluorescence (ex/em 530/590) measured on a Victor3 platereader (Perkin Elmer, Waltham, Mass.). In some experiments, Trypan Blue dye exclusion counting was performed using an automated cell counter (ViCell, Beckman-Coulter Inc., Brea, Calif.). Cell viability in test conditions is reported as a percentage relative to the negative control treatment.
The ability of various compounds disclosed herein to inhibit death in erastin (10 μM)-treated HT-1080 cells were tested. Cell viability was assessed by Alamar Blue. EC50 values (nM) were computed from dose response curves.
HT-1080 cells are cultured in DMEM containing 10% fetal bovine serum, 1% supplemented non-essential amino acids and 1% pen/strep mixture (Gibco) and maintained in a humidified environment at 37° C. with 5% CO2 in a tissue culture incubator. 1,000 HT-1080 cells are seeded per well in duplicate 384-well plates (Corning) using a BioMek FX liquid handling robot (Beckman Coulter). The next day, the medium is replaced with 36 μL of medium containing 10 μM erastin with 4 μL of medium containing a dilution series (previously prepared) of DMSO, Fer-1 (positive control) or Fer-1 analogs. 24 hours later, 10 μL Alamar Blue (Invitrogen) cell viability solution is added to the growth media to a final concentration of 10%. Cells are incubated a further 6 hours and then the Alamar Blue fluorescence intensity recorded using a Victor 3 platereader (PerkinElmer)(ex/em 530/590). All experiments are performed at least twice and the background (no cells)-subtracted Alamar Blue values for each combination are averaged between replicates.
On the technique in general: Alamar Blue is a resazurin reagent that responds to reducing activity.
Take `CCOC(=O)c1ccc(NC2CCCCC2)c(NCc2ccncc2)c1` [SRS12-45, ethyl 4-(cyclohexylamino)-3-((pyridin-4-ylmethyl)amino)-benzoate]: the “potency compared with Fer-1” value is given as “more potent than Fer-1”.

The test is the same for the next values; noted with them: Homo sapiens, HT-1080, SI Table 2, analogs with various hydrophobic moieties; read-out: EC50.
Usually pEC50 stands for the EC50 on a negative log10 scale, so that one unit is a factor of ten. Turning to `CCOC(=O)c1ccc(Nc2ccccc2)c(N)c1` [SRS8-42, ethyl 3-amino-4-(phenylamino)benzoate], the pEC50 was 6.70.

Turning to `CCOC(=O)c1ccc(NC2CCC(C)CC2)c(N)c1` (stereo not drawn) [SRS8-48, ethyl 3-amino-4-(4-methylcyclohexylamino)benzoate], the pEC50 is 7.05. For the compound `CCOC(=O)c1ccc(NC2CCCCCCC2)c(N)c1` [SRS8-70, ethyl 3-amino-4-(cyclooctylamino)benzoate], the pEC50 was 7.10.

Regarding `CCCCCCCCNc1ccc(C(=O)OCC)cc1N` [SRS8-94, ethyl 3-amino-4-(octylamino)benzoate], the negative-log EC50 (pEC50) was 7.10. The same measure, in the same setting: the value for `CCOC(=O)c1ccc(NC2CCCCCCCCCCC2)c(N)c1` [SRS9-06, ethyl 3-amino-4-(cyclododecylamino)benzoate] was 7.15.

The same test, now with this note: Homo sapiens, HT-1080, SI Table 3, cyclic amines bearing heteroatoms; read-out: EC50.
With `CCOC(=O)c1ccc(NC2CCC(NC(=O)OC(C)(C)C)CC2)c(N)c1` (stereo not drawn) [SRS8-46, ethyl 3-amino-4-(4-(tert-butoxycarbonylamino)cyclohexyl-amino)benzoate], the pEC50 is 6.29.

For the compound `CCOC(=O)c1ccc(NC2CCN(C(=O)OC(C)(C)C)CC2)c(N)c1` [SRS8-47, tert-butyl 4-(2-amino-4-(ethoxycarbonyl)phenylamino)-piperidine-1-carboxylate], the pEC50 is 6.15.

Regarding `CCOC(=O)c1ccc(NC2CCC(F)(F)CC2)c(N)c1` [SRS8-52, ethyl 3-amino-4-(4,4-difluorocyclohexylamino)benzoate], the pEC50 is 6.19. In the case of `CCOC(=O)c1ccc(NC2CCN(C(=O)OCC)CC2)c(N)c1` [SRS8-54, ethyl 4-(2-amino-4-(ethoxycarbonyl)phenylamino)piperidine-1-carboxylate], the pEC50 is 5.60. Consider `CCOC(=O)c1ccc(NC2CCC(N)CC2)c(N)c1` (stereo not drawn) [SRS8-80, ethyl 3-amino-4-(4-aminocyclohexylamino)benzoate], for which the pEC50 was 6.42.

Staying with this test, now noted: Homo sapiens, HT-1080, SI Table 4, various R3 substitutions.
Consider `NCCOCCOC(=O)c1ccc(NC2CCCCC2)c(N)c1` [SRS8-43, 2-(2-aminoethoxy)ethyl 3-amino-4-(cyclohexylamino)benzoate], for which the pEC50 is 6.38.

The test is the same for the next values; noted with them: Homo sapiens, HT-1080, SI Table 4, various R3 substitutions; read-out: EC50.
In the case of `CC(C)(C)OC(=O)NCCOCCOC(=O)c1ccc(NC2CCCCC2)c(N)c1` [SRS8-37, 2-(2-(tert-butoxycarbonylamino)ethoxy)ethyl 3-amino-4-(cyclohexylamino)benzoate], the pEC50 was 6.80. Regarding `COC(=O)c1ccc(NC2CCCCC2)c(N)c1` [SRS8-61, methyl 3-amino-4-(cyclohexylamino)benzoate], the pEC50 is 6.82. With `Nc1ccccc1NC1CCCCC1` [SRS8-75, N1-cyclohexylbenzene-1,2-diamine], the pEC50 was 6.48.

As for `CC(C)(C)OC(=O)c1ccc(NC2CCCCCCC2)c(N)c1` [SRS8-87, tert-butyl 3-amino-4-(cyclooctylamino)benzoate], the pEC50 is 7.05. With `CCCCCCCCCCOC(=O)c1ccc(NC2CCCCC2)c(N)c1` [SRS12-29, decyl 3-amino-4-(cyclohexylamino)benzoate], the pEC50 is 7.12.

Still in this test, the particulars now being: Homo sapiens, HT-1080, SI Table 5; read-out: EC50.
For the compound `CCOC(=O)c1ccc(NC2CCCCCCC2)c(N)c1` [SRS8-70, ethyl 3-amino-4-(cyclooctylamino)benzoate], the pEC50 is 7.16.

`CCOC(=O)c1ccc(NC2CCCCCCC2)c(NC(=O)OC(C)(C)C)c1` [SRS8-91, ethyl 3-(tert-butoxycarbonylamino)-4-(cyclooctylamino)-benzoate]: the pEC50 is below 5.00. For the compound `CCCCCCCCNc1ccc(C(=O)OCC)cc1N` [SRS8-94, ethyl 3-amino-4-(octylamino)benzoate], the pEC50 is 7.10.

As to `CCOC(=O)c1ccc(NC2CCCCCCC2)c(N(C)C)c1` [SRS9-01, ethyl 4-(cyclooctylamino)-3-(dimethylamino)benzoate], the pEC50 was 5.52. On to `CCOC(=O)c1ccc(NC2CCCCCCC2)c(NC)c1` [SRS9-14, ethyl 4-(cyclooctylamino)-3-(methylamino)benzoate], for which the pEC50 was 7.15. As to `CCOC(=O)c1ccc(NC2CCCCC2)c(NC(=O)OCc2ccccc2)c1` [SRS11-89, ethyl 3-(benzyloxycarbonylamino)-4-(cyclohexylamino)-benzoate], the pEC50 was below 5.00. Turning to `CCOC(=O)c1ccc(NC2CCCCC2)c(NC(=O)OC)c1` [SRS11-97, ethyl 4-(cyclohexylamino)-3-(methoxycarbonylamino)benzoate], the pEC50 was below 5.00. For `CCOC(=O)c1ccc(NC2CCCCC2)c(NC(C)=O)c1` [SRS11-98, ethyl 4-(cyclohexylamino)-3-ethanamidobenzoate], the pEC50 was below 5.00. On to `CCCCCCCCN(CCCCCCCC)c1ccc(C(=O)OCC)cc1N` [SRS12-12, ethyl 3-amino-4-(dioctylamino)benzoate], for which the pEC50 is 4.82.

Staying with this test, now noted: Homo sapiens, HT-1080, SI Table 6; read-out: EC50.
For `CCOC(=O)c1ccc(NC2CCCCC2)c(NCc2ccc(F)cc2)c1` [SRS12-33, ethyl 4-(cyclohexylamino)-3-((4-fluorobenzyl)amino)benzoate], the pEC50 is 7.30. With `CCOC(=O)c1ccc(NC2CCCCC2)c(NCc2ccc(C)cc2)c1` [SRS12-34, ethyl 4-(cyclohexylamino)-3-((4-methylbenzyl)amino)benzoate], the pEC50 was 7.40. `CCOC(=O)c1ccc(NC2CCCCC2)c(NCc2ccc(Br)cc2)c1` [SRS12-35, ethyl 3-((4-bromobenzyl)amino)-4-(cyclohexylamino)benzoate]: the pEC50 was 7.36.

As to `CCOC(=O)c1ccc(NC2CCCCC2)c(NCc2ccc([N+](=O)[O-])cc2)c1` [SRS12-36, ethyl 4-(cyclohexylamino)-3-((4-nitrobenzyl)amino)benzoate], the pEC50 is 7.44. In the case of `CCOC(=O)c1ccc(NC2CCCCC2)c(NCc2ccc(OC)cc2)c1` [SRS12-43, ethyl 4-(cyclohexylamino)-3-((4-methoxybenzyl)amino)-benzoate], the pEC50 was 7.16.

The same test, now with this note: Homo sapiens, HT-1080, SI Table 7; read-out: EC50.
As for `CCOC(=O)c1ccc(NC2CCC(C(C)(C)C)CC2)c(NCc2ccccc2)c1` (single isomer, unassigned) [SRS13-29, ethyl 3-(benzylamino)-4-(4-tert-butylcyclohexylamino)benzoate], the pEC50 was 7.08. Consider `CCOC(=O)c1ccc(NC2CCCCC2)c(NCc2ccc(OC(C)=O)cc2)c1` [Compound 4MO43, ethyl 4-(cyclohexylamino)-3-(4-(ethanoyloxy)benzylamino)-benzoate], for which the pEC50 was 7.33. Take `CCOC(=O)c1ccc(NC2CCCCC2)c(NCc2ccncc2)c1` [SRS12-45, ethyl 4-(cyclohexylamino)-3-((pyridin-4-ylmethyl)amino)-benzoate]: the pEC50 is 7.60.

The same test, now with this note: SI Table 2, analogs with various hydrophobic moieties; read-out: EC50.
`CCOC(=O)c1ccc(NC2CCC(C(C)(C)C)CC2)c(N)c1` (single isomer, unassigned) [SRS13-10_F1, Ethyl 3-amino-4-(4-tert-butylcyclohexyl-amino)benzoate]: the pEC50 was 7.36. Turning to `CCOC(=O)c1ccc(NC2CCC(C(C)(C)C)CC2)c(N)c1` (single isomer, unassigned) [SRS13-10_F2, Ethyl 3-amino-4-(4-tert-butylcyclohexyl-amino)benzoate], the pEC50 is 7.89. Turning to `CCOC(=O)c1ccc(NC2CCCC2)c(N)c1` [SRS8-73], the pEC50 is 6.92. Take `CCOC(=O)c1ccc(NC2CCCCCC2)c(N)c1` [SRS8-90]: the pEC50 is 6.89.

Still in this test, the particulars now being: SI Table 3, cyclic amines bearing heteroatoms; read-out: EC50.
Take `CCOC(=O)c1ccc(NC2CCOCC2)c(N)c1` [SRS8-41]: the pEC50 is 5.84. Take `CCOC(=O)c1ccc(NN2CCN(C)CC2)c(N)c1` [SRS8-53]: the pEC50 is 5.44.

Still in this test, the particulars now being: SI Table 8; read-out: EC50.
Turning to `CCOC(=O)c1ccc(Cl)c(N)c1` [SRS8-62], the negative-log EC50 (pEC50) is below 5.00.

Staying with this test, now noted: added up to 6 hours after erastin.
For `c1ccc(-c2ccccn2)nc1` [2,2-bipyridyl, reference compound], the “protection when added after erastin” value is “substantial protection from death”.

Staying with this test, now noted: erastin-treated HT-1080 cells.
As to `NOCC(=O)O` [AOA, aminooxyacetic acid, reference compound], the “prevention of erastin-induced death” value was “rescued both HT-1080 and BJeLR cells from erastin-induced ferroptosis”.

As to `CC(=O)OCOC(=O)CN(CC(=O)OCOC(C)=O)c1ccccc1OCCOc1ccccc1N(CC(=O)OCOC(C)=O)CC(=O)OCOC(C)=O` [BAPTA-AM, reference compound], the “prevention of erastin-induced death” value is given as “had no effect on erastin-induced death”. Consider `O=C(O)C(Cl)Cl` [DCA, dichloroacetic acid, reference compound], for which the “prevention of erastin-induced death” value was “had no effect on erastin-induced ferroptosis”.

Consider `COC(=O)CCC(=O)C(=O)OC` [DMK, dimethyl alpha ketoglutarate, reference compound], for which the “prevention of erastin-induced death” value was “the lethality of erastin was restored”. `O=C(O)CN(CCOCCOCCN(CC(=O)O)CC(=O)O)CC(=O)O` [EGTA, reference compound]: the “prevention of erastin-induced death” value was “had no effect on erastin-induced death”.

On to `Cc1ccc(N(CC(=O)O)CC(=O)O)c(OCCOc2cc3cc(-c4ncc(C(=O)O)o4)oc3cc2N(CC(=O)O)CC(=O)O)c1` [Fura-2, reference compound], for which the “prevention of erastin-induced death” value was “had no effect on erastin-induced death”.
